Data taken from the METLIN SMRT retention time set (Domingo-Almenara et al. 2019).

Assay: gradient 5% acetonitrile 3 min, to 50% in 2 min, to 85% in 15 min, held 3 min, 100 µL/min
Settings: column: Zorbax Extend-C18 2.1 x 50 mm; eluents: water / acetonitrile, 0.1% formic acid
Procedure, shortened: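 Pure standards were run in mixtures of ~100 molecules by HPLC coupled to a quadrupole time-of-flight mass spectrometer. The column was a Zorbax Extend-C18 (2.1 × 50 mm, 1.8 μm) at 100 μL/min, with water and acetonitrile each containing 0.1% formic acid, in positive and negative ionization mode. Dead and dwell volumes were 40 μL and 900 μL. Retention time was taken from computationally picked adduct peaks, each manually inspected, with data collected over 3 months.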

For Cn1nc(CNC(=O)CNC(=O)Cc2ccc(Cl)cc2)c2ccccc21, the RP-LC retention time was 742 s.

Work on O=C(NC1CCN(c2nnc3ccc(Cl)cn23)CC1)c1ccco1 yielded an RP-LC retention time of 606 s.

Work on COc1ccc(Cl)cc1C(=O)NCC(O)C1CCCCC1 (stereo unspecified) yielded an RP-LC retention time of 863 s.

Compound CCOC(=O)c1cn(CC(=O)NCCC(C)C)c2nc(C)ccc2c1=O has an RP-LC retention time of 723 s.

For COc1ccccc1OCCNC(=O)C1CC(=O)N(c2n[nH]c3cccc(F)c23)C1 (stereo unspecified), the RP-LC retention time was 688 s.

Work on CC1(C(=O)NCc2ccc(F)cc2)Cn2cnc(C(=O)N3CCOCC3)c2C(=O)N1C1CC1 (stereo unspecified) yielded an RP-LC retention time of 616 s.

Compound O=C1c2ccccc2C(=O)N1CCSc1nnc2sc3ccccc3n12 has an RP-LC retention time of 696 s.

In the case of COc1ccc(N2CC(c3noc(-c4cccc(OC)c4)n3)CC2=O)cc1 (stereo unspecified), the RP-LC retention time is reported as 922 s.

With CCc1noc(NC(C)=O)c1-c1ccc(C)c(S(=O)(=O)NC(C)C)c1 the RP-LC retention time was 738 s.

Work on COC(=O)c1ccc(NC(=O)C2CCCN(S(=O)(=O)c3ccc(OC)c(C)c3)C2)cc1 (stereo unspecified) yielded an RP-LC retention time of 1000 s.

Compound CCn1nccc1C(=O)NC1CCN(C2=NS(=O)(=O)C(c3ccc(C)cc3)=C2C)CC1 has an RP-LC retention time of 817 s.

In the case of Cc1ccc(C)c(N2CCN(C(=O)c3ccc4c(c3)N(C)C(=O)C3CCCCN43)CC2)c1 (stereo unspecified), the RP-LC retention time is reported as 1180 s.

With Cc1ccc(N2CCN(C(=O)c3cn4cc(Cl)ccc4n3)CC2)cc1 the RP-LC retention time was 830 s.

Work on O=S(=O)(c1ccc2c(c1)CCC2)N1CCC2(CC1)CC(Cc1nc(-c3cnccn3)no1)CCO2 (stereo unspecified) yielded an RP-LC retention time of 1010 s.

In the case of CCCS(=O)(=O)N1CCC(Oc2nccnc2N2CCOCC2)C1 (stereo unspecified), the RP-LC retention time is reported as 761 s.

Compound CCNC(=O)c1sc2nc(-c3ccccc3)c(NCCOC)n2c1C has an RP-LC retention time of 712 s.

Compound Cc1ccc(-c2noc(CSc3nccn3-c3ccc(C)cc3)n2)cc1 has an RP-LC retention time of 1020 s.

Cc1oc(C2CCN(C(=O)Nc3ccc(F)cc3)CC2)nc1C(=O)N(C)C gave an RP-LC retention time of 684 s.

For O=C(NCc1ccco1)N1CCCn2nc(-c3cccc(Cl)c3)cc2C1, the RP-LC retention time was 854 s.

With CN(Cc1ccco1)C(=O)c1ccc2ncnc(N3CCCCC3)c2c1 the RP-LC retention time was 632 s.

In the case of COC(=O)c1ccccc1NC(=O)N(Cc1cc(=O)[nH]c2ccccc12)CC(C)C, the RP-LC retention time is reported as 943 s.

CC(C)C(=O)Nc1ccc(C2(C(=O)N(C)Cc3ccccc3)CCCCC2)cc1 showed an RP-LC retention time of 1080 s.

For CCN(CC)CC(C)(C)C(=O)/C=C/c1ccc(C)cc1, the RP-LC retention time was 684 s.

With Cc1cc(C(=O)N2CCOCC2)nn1CC(=O)NCCc1c[nH]c2ccccc12 the RP-LC retention time was 637 s.

With Cc1nnc(SCC(=O)N2CCOCC2)s1 the RP-LC retention time was 560 s.

COc1ccc(Cl)cc1S(=O)(=O)N1CCC(C(=O)NCCO)CC1 gave an RP-LC retention time of 629 s.

Compound COc1ccc(-c2n[nH]c3c2C(c2ccc(O)cc2)N(C)C3=O)cc1 (stereo unspecified) has an RP-LC retention time of 667 s.

Compound Cc1cc(N)n(-c2nc(C)nc3sc4c(c23)CCC(C)C4)n1 (stereo unspecified) has an RP-LC retention time of 857 s.

For O=C(c1ccco1)N1CCc2cc(-c3ccno3)ccc21, the RP-LC retention time was 815 s.

Compound CC(C)NC(=O)N1CCCC(c2cccc(C(=O)NCC3CCCCC3)c2)C1 (stereo unspecified) has an RP-LC retention time of 945 s.

With Cc1ccc(S(=O)(=O)n2c(N)nc3ccccc32)cc1 the RP-LC retention time was 825 s.

Cc1cc2c(cc1S(=O)(=O)N1CCCCC1)N(C(=O)C1CC1)CC2 gave an RP-LC retention time of 980 s.

Work on CC(C)CCn1c(CN(C)C(=O)c2ccco2)nc2ccccc21 yielded an RP-LC retention time of 718 s.

CCC(C(=O)N1CCN(c2cc(=O)n(C)c(=O)n2C)CC1)N1C(=O)COc2ccccc21 (stereo unspecified) gave an RP-LC retention time of 702 s.

Work on CCOC(=O)C1CCN(Cc2cn3c(-c4ccc(OC)cc4)nnc3s2)CC1 yielded an RP-LC retention time of 563 s.

For Cc1cc(-c2nnc(C3CCC3)o2)c(C)n1CC(=O)Nc1ccccc1F, the RP-LC retention time was 887 s.

For c1csc(-c2nc(-c3ccnc(N4CCCC4)c3)no2)c1, the RP-LC retention time was 665 s.

With CCc1noc(NC(C)=O)c1-c1ccc(OC)c(S(=O)(=O)Nc2ccc(OC)cc2OC)c1 the RP-LC retention time was 777 s.

With CCOC(=O)Cc1ccc(NC(=O)N2CCCC2c2c(C)noc2C)cc1 (stereo unspecified) the RP-LC retention time was 775 s.

COc1cccc(CC(=O)N2CCC3(CC2)NCc2ccccc2-n2ccnc23)c1 showed an RP-LC retention time of 572 s.

With CCOC(=O)c1cc(S(=O)(=O)N2CCCC2C(=O)N2CCCCC2)cn1C (stereo unspecified) the RP-LC retention time was 767 s.

With COc1ccc(-c2c(C)noc2NC(C)=O)cc1S(=O)(=O)NCc1ccc(C)o1 the RP-LC retention time was 714 s.

Work on Cc1cc(O)c(C(C)C)cc1NC(=O)Nc1cccc2ccccc12 yielded an RP-LC retention time of 1190 s.

In the case of CCCn1c(C)cnc1C1CN(C(=O)C(C)C)C1, the RP-LC retention time is reported as 553 s.

With CNC(=O)C1=CCN(C(=O)c2cc(C)cc(C)c2)CC1 the RP-LC retention time was 705 s.

Work on CCn1cnc(S(=O)(=O)N2CCC(C(=O)Nc3cc(C)ccc3C)CC2)c1 yielded an RP-LC retention time of 719 s.

Compound CN(C(=O)Cn1nc2n(c1=O)CCCC2)c1ccccc1 has an RP-LC retention time of 632 s.

CCCCn1cc(S(=O)(=O)NCc2ccccn2)c2cccnc21 showed an RP-LC retention time of 671 s.

CCOc1cc(C(=O)NC2CCN(c3cc(-c4ccc(OC)cc4)[nH]n3)C2)cc(OCC)c1OCC (stereo unspecified) gave an RP-LC retention time of 806 s.

Cc1cc(C)cc(C(=O)OC2C[C@H]3CC[C@@H](C2)N3C)c1 (stereo partly specified) showed an RP-LC retention time of 729 s.

Compound CC1CCCN(CC2CCN(S(=O)(=O)CCc3ccccc3)CC2)C1 (stereo unspecified) has an RP-LC retention time of 677 s.

Compound CN1C(=O)C(CC(=O)N2CCCCC2)=C2CCCCC21 (stereo unspecified) has an RP-LC retention time of 677 s.

Compound CCc1noc(NC(C)=O)c1-c1ccc(OC)c(S(=O)(=O)N2CCN(c3ccccc3)CC2)c1 has an RP-LC retention time of 895 s.

Cc1ccc(NS(=O)(=O)c2cn(CC(C)C)c3ncccc23)cc1 showed an RP-LC retention time of 986 s.

In the case of COc1cc([C@@H]2c3cc4c(cc3[C@H](O)[C@@H](CO)[C@@H]2C(=O)NCc2ccc(OC(C)C)cc2)OCO4)cc(OC)c1OC, the RP-LC retention time is reported as 770 s.

O=c1oc2cc(S(=O)(=O)NCCO)ccc2c2ccc(S(=O)(=O)NCCO)cc12 gave an RP-LC retention time of 589 s.

In the case of Cc1cnc(C2CCOCC2)n1C1CCN(C(=O)NC2CCCCC2)CC1, the RP-LC retention time is reported as 611 s.

For N#Cc1c(NC(=O)CSc2nnc3ccccn23)sc2c1CCC2, the RP-LC retention time was 704 s.

With Cc1ccc(C)c(-c2coc(-c3ccc(N)cc3)n2)c1 the RP-LC retention time was 1060 s.

CN1C(=O)N(C)C2(CCN(C(=O)c3ccco3)CC2)C1=O gave an RP-LC retention time of 597 s.

In the case of COc1ccc(C2(C(=O)N3CCN(C(=O)c4cc(-c5cccnc5)n[nH]4)CC3)CC2)cc1, the RP-LC retention time is reported as 621 s.

CCc1nc(-c2csc(S(=O)(=O)N3CCCC(C(=O)Nc4cc(F)ccc4F)C3)c2)no1 (stereo unspecified) gave an RP-LC retention time of 1090 s.

In the case of COC(=O)c1cccc(Nc2c(-c3ccc(C)cc3)nc3cnccn23)c1, the RP-LC retention time is reported as 849 s.

For COCCNC(=O)C1CCN(C(=O)c2ncn3c2COC(c2ccc(OC)cc2)C3)CC1 (stereo unspecified), the RP-LC retention time was 658 s.

O=C(Nc1ccc2c(c1)OCCO2)C1CCCN(c2cnc3nccnc3c2)C1 (stereo unspecified) showed an RP-LC retention time of 689 s.

Compound COc1cccc(NC(=O)Cn2c(=O)cc(-c3nc(C(C)C)no3)c3ccccc32)c1 has an RP-LC retention time of 982 s.

Compound Cc1ccc(CNC(=O)C2CCCN(c3ccc(=O)n(-c4ccc(C)c(Cl)c4)n3)C2)cc1 (stereo unspecified) has an RP-LC retention time of 975 s.

In the case of O=C(NCc1csc(C2CCCN(C(=O)c3c(F)cccc3F)C2)n1)C1CCC1 (stereo unspecified), the RP-LC retention time is reported as 742 s.

With Cc1ccc(N2C(=O)N(Cc3ccc(F)cc3)S(=O)(=O)c3cccnc32)cc1 the RP-LC retention time was 1080 s.

CCn1ncc(NC(=O)COc2ccccc2C)c(N2CCOCC2)c1=O showed an RP-LC retention time of 889 s.

CCn1nccc1C(=O)N1CCC(c2noc(N)c2C)CC1 showed an RP-LC retention time of 622 s.

Work on Cc1cc(C)c(S(=O)(=O)Nc2ccc(Cn3cncn3)cc2)c(C)c1 yielded an RP-LC retention time of 798 s.

CCc1nccn1Cc1nc(-c2ccc(C)c(C)c2)no1 gave an RP-LC retention time of 681 s.

With Cc1[nH]c(C(=O)N2CCCC(C(=O)NC(c3cccs3)C(C)C)C2)c(C)c1C(=O)OC(C)C (stereo unspecified) the RP-LC retention time was 987 s.

O=C(NCc1cccnc1)C1CCCN(c2ccc(Sc3ccc(Br)cc3)nn2)C1 (stereo unspecified) gave an RP-LC retention time of 653 s.

COCCN1C(=O)[C@H]2CN(Cc3ccc(F)c(Br)c3)C[C@H]2C1=O gave an RP-LC retention time of 680 s.

Work on Cc1ccc(Cn2cc(-c3ccncc3)cc2C(=O)NCC(C)C)cc1 yielded an RP-LC retention time of 720 s.

Work on CC(/C=C/c1cccc(Oc2ccc(F)cc2)c1)N(O)C(N)=O (stereo unspecified) yielded an RP-LC retention time of 927 s.

CC(C)n1cnc2cc(CNC(=O)Cc3cccs3)ccc21 gave an RP-LC retention time of 600 s.

Compound Cc1nn2c(CNS(=O)(=O)c3cccc(Cl)c3)c(-c3ccccc3)nc2s1 has an RP-LC retention time of 916 s.

Compound CCC(=O)Nc1cccn2nc(C3CCC3)nc12 has an RP-LC retention time of 735 s.

For CCc1noc(-c2cnc3nc(C)ccc3c2Nc2ccc3c(c2)OCCO3)n1, the RP-LC retention time was 731 s.

For CCn1c(SCC(=O)N2CCCC2)nnc1-c1ccc2c(c1)OCCCO2, the RP-LC retention time was 666 s.

With O=C(CCSc1ccccc1)Nc1ccc2c(c1)CN(C(=O)C1CC1)CC2 the RP-LC retention time was 816 s.

Compound COc1cc(OC)cc(-c2nnc(Cc3nc(-c4cccc(Cl)c4)no3)o2)c1 has an RP-LC retention time of 1130 s.

For COCCCNC(=O)C1CCCN(c2nccc(C)n2)C1 (stereo unspecified), the RP-LC retention time was 592 s.

Compound CC(C)c1noc(-c2cc(=O)n(CC(=O)Nc3ccc(F)cc3F)c3ccccc23)n1 has an RP-LC retention time of 1020 s.

Work on Cc1ccc(C)c(NC(=O)Cn2c(C)cc(-c3nnc(C)o3)c2C)c1 yielded an RP-LC retention time of 796 s.

In the case of CSc1cccc(NC(=O)N2CCC(c3nc(C(=O)N4CCCCC4)c(C)o3)CC2)c1, the RP-LC retention time is reported as 828 s.

Compound CCC(C)NS(=O)(=O)c1cc(-c2nnc(-c3ccc(OC)c(OC)c3)o2)ccc1C (stereo unspecified) has an RP-LC retention time of 938 s.

COc1cc(OC)cc(C(=O)NC(C)C(=O)Nc2nc3ccccc3[nH]2)c1 (stereo unspecified) gave an RP-LC retention time of 656 s.
